The compounds below were run on Ba/F3 cells expressing EGFR Del19/C797S (EGFR DC) (assay: Proliferation inhibitory activity, Ba/F3 cells expressing EGFR Del19/C797S (CellTiter-Glo)). Settings: 72 hours of compound treatment.
Assay type: cell-based
How it was run: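 Viability after 72 h of compound exposure was measured by luminescence (CellTiter-Glo) in Ba/F3 lines transduced with mutant EGFR. Final concentrations spanned 0.2 nM–5 μM over 12 threefold steps. Growth relative to untreated control gave GI50 values; each test was run three times.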

In the case of `COc1cc(N2CCC(N3CCCN(C)CC3)CC2)ccc1Nc1cc(N2OCC[C@@H]2c2cccc(F)c2F)ncn1` [Example 221], the GI50 is reported as under 50 nM.

Same assay, conditions: Mus musculus, BaF3, 72 hours of compound treatment

`COc1cc(N2CCC(N3CCN(CC4CC4)CC3)CC2)ccc1Nc1cc(N2OCC[C@@H]2c2cccc(F)c2F)ncn1` [Example 210, (R)—N-(4-(4-(4-(cyclopropylmethyl)piperazin-1-yl)piperidin-1-yl)-2-methoxyphenyl)-6-(3-(2,3-difluorophenyl)isoxazolidin-2-yl)pyrimidin-4-amine] and `COc1cc(N2CCC(N3CCN(CCS(C)(=O)=O)CC3)CC2)ccc1Nc1cc(N2OCC[C@@H]2c2cccc(F)c2F)ncn1` [Example 237, (R)-6-(3-(2,3-difluorophenyl)isoxazolidin-2-yl)-N-(2-methoxy-4-(4-(4-(2-(methylsulfonyl)ethyl)piperazin-1-yl)piperidin-1-yl)phenyl)pyrimidin-4-amine] cannot be ordered by GI50: under 50 nM for the first, under 50 nM for the second.

`COc1cc(N2CCC(N3CC4(CN(C)C4)C3)CC2)ccc1Nc1cc(N2OCC[C@@H]2c2cccc(F)c2F)ncn1` [Example 211, (R)-6-(3-(2,3-difluorophenyl)isoxazolidin-2-yl)-N-(2-methoxy-4-(4-(6-methyl-2,6-diazaspiro[3.3]heptan-2-yl)piperidin-1-yl)phenyl)pyrimidin-4-amine] and `COc1cc(N2CCC(N3CCN(C)[C@H](C)C3)CC2)ccc1Nc1cc(N2OCC[C@@H]2c2cccc(F)c2F)ncn1` [Example 213, 6-((R)-3-(2,3-difluorophenyl)isoxazolidin-2-yl)-N-(4-(4-((R)-3,4-dimethylpiperazin-1-yl)piperidin-1-yl)-2-methoxyphenyl)pyrimidin-4-amine] cannot be ordered by GI50: under 50 nM for the first, under 50 nM for the second.

`COc1cc(N2CCC(N3CC[C@@H](N(C)C)C3)CC2)ccc1Nc1cc(N2OCC[C@@H]2c2cccc(F)c2F)ncn1` [Example 212, 6-((R)-3-(2,3-difluorophenyl)isoxazolidin-2-yl)-N-(4-(4-((R)-3-(dimethylamino)pyrrolidin-1-yl)piperidin-1-yl)-2-methoxyphenyl)pyrimidin-4-amine] and `COc1cc(N2CCC(N3CCN(C)[C@@H](C)C3)CC2)ccc1Nc1cc(N2OCC[C@@H]2c2cccc(F)c2F)ncn1` [Example 214, 6-((R)-3-(2,3-difluorophenyl)isoxazolidin-2-yl)-N-(4-(4-((S)-3,4-dimethylpiperazin-1-yl)piperidin-1-yl)-2-methoxyphenyl)pyrimidin-4-amine] cannot be ordered by GI50: under 50 nM for the first, under 50 nM for the second.

`CCN1[C@H](C)CN(C2CCN(c3ccc(Nc4cc(N5OCC[C@@H]5c5cccc(F)c5F)ncn4)c(OC)c3)CC2)C[C@@H]1C` [Example 215, 6-((R)-3-(2,3-difluorophenyl)isoxazolidin-2-yl)-N-(4-(4-((3S,5R)-4-ethyl-3,5-dimethylpiperazin-1-yl)piperidin-1-yl)-2-methoxyphenyl)pyrimidin-4-amine] and `CCN1C2CC1CN(C1CCN(c3ccc(Nc4cc(N5OCC[C@@H]5c5cccc(F)c5F)ncn4)c(OC)c3)CC1)C2` [Example 219, 6-((R)-3-(2,3-difluorophenyl)isoxazolidin-2-yl)-N-(4-(4-(6-ethyl-3,6-diazabicyclo[3.1.1]heptan-3-yl)piperidin-1-yl)-2-methoxyphenyl)pyrimidin-4-amine] cannot be ordered by GI50: under 50 nM for the first, under 50 nM for the second.

`COc1cc(N2CCC(N3CCN(C)C[C@@H]3C)CC2)ccc1Nc1cc(N2OCC[C@@H]2c2cccc(F)c2F)ncn1` [Example 216, 6-((R)-3-(2,3-difluorophenyl)isoxazolidin-2-yl)-N-(4-(4-((S)-2,4-dimethylpiperazin-1-yl)piperidin-1-yl)-2-methoxyphenyl)pyrimidin-4-amine] and `COc1cc(N2CCC(N3CCN(C)C[C@H]3C)CC2)ccc1Nc1cc(N2OCC[C@@H]2c2cccc(F)c2F)ncn1` [Example 217, 6-((R)-3-(2,3-difluorophenyl)isoxazolidin-2-yl)-N-(4-(4-((R)-2,4-dimethylpiperazin-1-yl)piperidin-1-yl)-2-methoxyphenyl)pyrimidin-4-amine] cannot be ordered by GI50: under 50 nM for the first, under 50 nM for the second.

`COc1cc(N2CC(N3CCN(C)CC3)C2)ccc1Nc1cc(N2OCC[C@@H]2c2cccc(F)c2F)ncn1` [Example 218, (R)-6-(3-(2,3-difluorophenyl)isoxazolidin-2-yl)-N-(2-methoxy-4-(3-(4-methylpiperazin-1-yl)azetidin-1-yl)phenyl)pyrimidin-4-amine] and `COc1cc(N2CCC(N3CCN(C)C(=O)C3)CC2)ccc1Nc1cc(N2OCC[C@@H]2c2cccc(F)c2F)ncn1` [Example 224, (R)-4-(1-(4-((6-(3-(2,3-difluorophenyl)isoxazolidin-2-yl)pyrimidin-4-yl)amino)-3-methoxyphenyl)piperidin-4-yl)-1-methylpiperazin-2-one] cannot be ordered by GI50: under 50 nM for the first, under 50 nM for the second.

`CCN1CC2CC(C1)N2C1CCN(c2ccc(Nc3cc(N4OCC[C@@H]4c4cccc(F)c4F)ncn3)c(OC)c2)CC1` [Example 220, 6-((R)-3-(2,3-difluorophenyl)isoxazolidin-2-yl)-N-(4-(4-(3-ethyl-3,6-diazabicyclo[3.1.1]heptan-6-yl)piperidin-1-yl)-2-methoxyphenyl)pyrimidin-4-amine] and `COc1cc(N2CCC(N3CCN(C(C)C)CC3)CC2)ccc1Nc1cc(N2OCC[C@@H]2c2cccc(F)c2F)ncn1` [Example 222, (R)-6-(3-(2,3-difluorophenyl)isoxazolidin-2-yl)-N-(4-(4-(4-isopropylpiperazin-1-yl)piperidin-1-yl)-2-methoxyphenyl)pyrimidin-4-amine] cannot be ordered by GI50: under 50 nM for the first, under 50 nM for the second.

`CN1CCN(c2ccc(Nc3cc(N4Oc5ccccc5C4c4ccccc4)ncn3)cc2)CC1` (stereo not drawn) [Example 229, N-(4-(4-methylpiperazin-1-yl)phenyl)-6-(3-phenylbenzo[d]isoxazol-2(3H)-yl)pyrimidin-4-amine] and `COc1cc(N2CCC(N3CCN(C)CC3)CC2)ccc1Nc1cc(N2Oc3ccccc3C2c2ccccc2)ncn1` (stereo not drawn) [Example 230, N-(2-methoxy-4-(4-(4-methylpiperazin-1-yl)piperidin-1-yl)phenyl)-6-(3-phenylbenzo[d]isoxazol-2 (3H)-yl)pyrimidin-4-amine] fall in the same range of GI50: 50 to 500 nM for the first, 50 to 500 nM for the second.

Compared with `CN1CCN(c2ccc(Nc3cc(N4OCC5(CC5)[C@@H]4c4ccccc4)ncn3)cc2)CC1` [Example 231, (S)—N-(4-(4-methylpiperazin-1-yl)phenyl)-6-(7-phenyl-5-oxa-6-azaspiro[2.4]heptan-6-yl)pyrimidin-4-amine], `COc1cc(N2CCC(N3CCN(C)CC3)CC2)ccc1Nc1cc(N2OCC3(CC3)[C@@H]2c2ccccc2)ncn1` [Example 233, (S)—N-(2-methoxy-4-(4-(4-methylpiperazin-1-yl)piperidin-1-yl)phenyl)-6-(7-phenyl-5-oxa-6-azaspiro[2.4]heptan-6-yl)pyrimidin-4-amine] is lower in GI50: 50 to 500 nM for the first, under 50 nM for the second.

Compared with `COc1cc(N2CCC(N3CCN(C)CC3)CC2)ccc1Nc1cc(N2OCC3(CC3)[C@H]2c2ccccc2)ncn1` [Example 234, (R)—N-(2-methoxy-4-(4-(4-methylpiperazin-1-yl)piperidin-1-yl)phenyl)-6-(7-phenyl-5-oxa-6-azaspiro[2.4]heptan-6-yl)pyrimidin-4-amine], `CC(C)[C@H]1CCON1c1cc(Nc2ccc(N3CCN(C)CC3)cc2)ncn1` [Example 235, (R)-6-(3-isopropylisoxazolidin-2-yl)-N-(4-(4-methylpiperazin-1-yl)phenyl)pyrimidin-4-amine] is lower in GI50: 50 to 500 nM for the first, under 50 nM for the second.
